This passage reports IC50 and EC50 results from patent US8377943B2, “2,4-diaminopyrimidine derivates as PTK2-inhibitors for the treatment of abnormal cell growth” (Boehringer Ingelheim International GmbH, priority 2008, dated 2013).

pEC50, pIC50: −log10 of the molar value.

The target of the first assay is T1, PTK2 (Homo sapiens, UniProt Q05397).
T1 construct: purchased Invitrogen PV3832
T1 sequence (Q05397 whole entry): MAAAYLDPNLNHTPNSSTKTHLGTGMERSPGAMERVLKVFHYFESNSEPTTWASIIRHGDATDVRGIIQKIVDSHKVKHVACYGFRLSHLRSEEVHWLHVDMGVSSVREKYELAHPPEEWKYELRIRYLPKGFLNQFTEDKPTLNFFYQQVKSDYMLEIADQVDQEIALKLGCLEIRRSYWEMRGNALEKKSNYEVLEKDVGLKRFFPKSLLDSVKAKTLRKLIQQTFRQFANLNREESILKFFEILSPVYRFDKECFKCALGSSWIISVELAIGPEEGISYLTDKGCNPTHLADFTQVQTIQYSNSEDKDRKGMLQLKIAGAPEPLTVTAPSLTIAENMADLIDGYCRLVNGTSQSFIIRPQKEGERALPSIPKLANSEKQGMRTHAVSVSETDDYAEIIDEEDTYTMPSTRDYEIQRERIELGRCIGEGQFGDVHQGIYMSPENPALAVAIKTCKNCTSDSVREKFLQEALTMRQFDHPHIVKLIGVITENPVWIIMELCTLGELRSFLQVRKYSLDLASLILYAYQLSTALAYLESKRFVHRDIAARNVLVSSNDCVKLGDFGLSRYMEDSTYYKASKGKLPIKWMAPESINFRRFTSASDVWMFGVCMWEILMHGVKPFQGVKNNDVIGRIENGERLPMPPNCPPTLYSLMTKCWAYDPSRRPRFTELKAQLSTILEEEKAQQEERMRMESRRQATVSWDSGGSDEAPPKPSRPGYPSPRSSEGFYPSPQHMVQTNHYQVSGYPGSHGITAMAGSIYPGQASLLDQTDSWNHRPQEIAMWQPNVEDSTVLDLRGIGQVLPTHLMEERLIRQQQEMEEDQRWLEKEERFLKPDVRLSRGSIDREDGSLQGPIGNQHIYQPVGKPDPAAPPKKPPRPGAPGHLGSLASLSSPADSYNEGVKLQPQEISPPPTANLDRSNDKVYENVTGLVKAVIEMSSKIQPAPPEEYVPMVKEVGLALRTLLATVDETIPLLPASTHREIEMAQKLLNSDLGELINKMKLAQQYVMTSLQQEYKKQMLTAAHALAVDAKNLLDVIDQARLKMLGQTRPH
The assay is described as follows: PTK2 Enzyme Test (DELFIA assay, poly-Glu-Tyr substrate). Particulars: active PTK2 enzyme, 50 μM ATP in ATP Mix, 1 h pre-incubation. It counts as biochemical. The protocol:
This test uses active PTK2 enzyme (Invitrogen Code PV3832) and poly-Glu-Tyr (4:1, Sigma P-0275) as the kinase substrate. The kinase activity is detected by means of the phosphorylation of the substrate in a DELFIA™ assay. The phosphorylated substrate is detected with the Europium-labelled phosphotyrosine antibody PY20 (Perkin Elmer, No.: AD0038).
In order to determine concentration-activity curves with PTK2-inhibitors the compounds are serially diluted in 10% DMSO/H2O and 10 μL of each dilution are dispensed per well in a 96-well microtitre plate (clear U-shaped base plate, Greiner No. 650101) (the inhibitors are tested in duplicates) and mixed with 10 μL/well of PTK2 kinase (0.01 μg/well). PTK2 kinase is diluted accordingly beforehand with kinase dilution buffer (20 mM TRIS/HCl pH 7.5, 0.1 mM EDTA, 0.1 mM EGTA, 0.286 mM sodium orthovanadate, 10% glycerol with the addition of freshly prepared BSA (fraction V 1 mg/mL) and DTT (1 mM)). The test compound and the PTK2 kinase are pre-incubated for 1 h at RT and shaken at 500 rpm. Then 20 μL ATP Mix (30 mM TRIS/HCl pH 7.5, 0.02% Brij, 0.2 mM sodium orthovanadate, 10 mM magnesium acetate, 0.1 mM EGTA, 1× Phosphatase Inhibitor Cocktail 1 (Sigma, No.: P2850), 50 μM ATP (Sigma, No.: A3377; 15 mM stock solution)) are added. The reaction is started by the addition of 10 μL/well of poly (Glu,Tyr) substrate (25 μg/well poly (Glu,Tyr), 0.05 μg/well biotinylated poly (Glu,Tyr) dissolved in 250 mM TRIS/HCl pH 7.5, 9 mM DTT)—the final concentration of DMSO is 2%. After 1 h kinase reaction (the plates are shaken at 500 rpm), the reaction is stopped by the addition of 12 μL/well of 100 mM EDTA, pH 8. And shaken for a further 5 min at RT (500 U/min).
55 μL of the reaction mixture are transferred into a streptavidin plate (Strepta Well High Bind (transparent, 96-well) made by Roche, No.: 11989685001) and incubated for 1 h at RT (shaking at 500 rpm). Then the microtitre plate is washed three times with 200 μL/well D-PBS (Invitrogen, No.:14190). 100 μL of 1:2000 diluted DELFIA Eu-N1 Anti-Phosphotyrosine PY20 antibody (Perkin Elmer, No.: AD0038, 1:2000 diluted in DELFIA test buffer (Perkin Elmer, No.: 1244-111)) is then added and it is incubated for 1 h at RT (shaking at 500 rpm). Then the plate is washed three times with 200 μL/well DELFIA washing buffer (Perkin Elmer, No.: 1244-114), 200 μL/well strengthening solution (Perkin Elmer, No.: 1244-105) is added and the whole is incubated for 10 min at RT (shaking at 300 rpm).
The time-delayed europium fluorescence is then measured in a microtitre plate reader (Victor, Perkin Elmer). The positive control consists of wells that contain solvent (2% DMSO in test buffer) and display uninhibited kinase activity. Wells that contain test buffer instead of enzyme act as a control for the background kinase activity.
The IC50 values are determined from concentration-activity analyses by iterative calculation using a sigmoidal curve analysis algorithm (FIFTY, based on GraphPAD Prism Version 3.03) with a variable Hill coefficient.
One may read the pIC50 as the IC50 on a negative log10 scale, so that one unit is a factor of ten. A high value points to a small IC50. For `COc1cc(C(N)=O)c(Br)cc1Nc1ncc(C(F)(F)F)c(NCc2ccc(C)cc2N(C)S(C)(=O)=O)n1` [Example 34], the negative-log IC50 (pIC50) is 8.52.
`COc1cc(C(=O)NC2CCN(C3CCOCC3)CC2)ccc1Nc1ncc(C(F)(F)F)c(NCc2ccc(Cl)cc2N(C)S(C)(=O)=O)n1` [Example 94]: the pIC50 was 8.70.
Same read-out and setting: the result for `COc1cc(C(=O)NC2CCN(C)CC2)c(C)cc1Nc1ncc(C(F)(F)F)c(NCc2ccc(C)cc2N(C)S(C)(=O)=O)n1` [Example 100] reads 9.00; that for `COc1cc(C(=O)NC2CCC(NS(C)(=O)=O)CC2)ccc1Nc1ncc(C(F)(F)F)c(NCc2ccc(C)cc2N(C)S(C)(=O)=O)n1` (centres unmarked) [Example 27], 8.40; that for `CCOCCNC(=O)c1ccc(Nc2ncc(C(F)(F)F)c(NCc3ccc(C)cc3N(C)S(C)(=O)=O)n2)c(OC)c1` [Example 21], 8.30.
Still for that read-out and setting: as for `COc1cc(C(=O)NC2CCN(CC3CC3)CC2)ccc1Nc1ncc(C(F)(F)F)c(NCc2ccc(C)cc2N(C)S(C)(=O)=O)n1` [Example 30], the figure is 8.40; as for `COc1cc(C(=O)NC2CCNCC2)ccc1Nc1ncc(C(F)(F)F)c(NCc2ccc(C)cc2N(C)S(C)(=O)=O)n1` [Example 83], 8.70; as for `CNC(=O)c1ccc(Nc2ncc(C(F)(F)F)c(NCc3ccc(OC)cc3N(C)S(C)(=O)=O)n2)c(OC)c1` [Example 81], 9.00.
Same read-out and setting: the result for `CNC(=O)c1ccc(Nc2ncc(C(F)(F)F)c(NCc3ccc(C)cc3N(C)S(C)(=O)=O)n2)c(OC)c1` [Example 69] reads 9.00; that for `COc1cc(C(=O)N[C@@H]2CCCN(C)C2)ccc1Nc1ncc(C(F)(F)F)c(NCc2ccc(C)cc2N(C)S(C)(=O)=O)n1` [Example 102], 8.70; that for `COc1cc(C(=O)N[C@@H]2CCCN(C3CCC3)C2)ccc1Nc1ncc(C(F)(F)F)c(NCc2ccc(C)cc2N(C)S(C)(=O)=O)n1` [Example 86], 8.52.
Take `COc1cc(C(=O)N[C@H]2CCN(C)C[C@H]2F)c(F)cc1Nc1ncc(C(F)(F)F)c(NCc2ccc(C)cc2N(C)S(C)(=O)=O)n1` [Example 22]: the pIC50 was 8.52.
On the same count and under the same terms, as for `CC(=O)Nc1ccc(Nc2ncc(C(F)(F)F)c(NCc3ccc(C)cc3N(C)S(C)(=O)=O)n2)cc1C` [Example 117], the figure is 9.07.

In the next assay the target is T2, PTK2-phosphorylation at tyrosine 397 (pY397) (Homo sapiens, UniProt Q05397).
T2 construct: endogenous in cells; host or cells: PC-3 (ATCC CRL-1435)
T2 sequence (Q05397 whole entry): as above
The assay is described as follows: Phospho-PTK2 (pY397) Assay in PC-3 cells. It counts as cell-based. The settings on record: PC-3 prostate carcinoma cells, 2 h incubation; read-out: PC3pPTK2 Y397 EC50. As for the experimental part: This cellular test is used to determine the influence of PTK2-inhibitors on the state of the PTK2-phosphorylation at tyrosine 397 (pY397).
PC-3 cells (prostate carcinoma, ATCC CRL-1435) are grown in cell culture flasks (175 cm^2) with F12 Kaighn's Medium (Gibco, No.: 21127) with the addition of 10% foetal calf serum (Invitrogen, No.: 16000-044). The cultures are incubated in the incubator at 37° C. and 5% CO2 and run twice a week.
For the test, 2×10^4 cells pro well/[…] are plated out in 96-well microtitre plates (Costar, No.: 3598) and incubated overnight in the incubator at 37° C. and 5% CO2. The test compounds (10 μL from serial dilution) are added the next day. The concentration of the test compounds usually covers a range of 50 μM and 0.8 nM. The test compounds (stock solution: 10 mM in 100% DMSO) are diluted in medium/medium 10% DMSO such that the final concentration is 1% DMSO. The cells are then incubated in the incubator at 37° C. and 5% CO2 for 2 h. Then the culture supernatant is removed and the cells are fixed with 150 μL 4% formaldehyde in D-PBS for 20 min at RT. The cell lawn is washed five times with 200 μL 0.1% Triton X-100 in D-PBS for 5 min in each case and then incubated for 90 min with blocking buffer (5% skimmed milk powder (Maresi Fixmilch) in TBST (25 mM Tris/HCl, pH 8.0, 150 mM NaCl, 0.05% Tween 20). The blocking buffer is replaced by 50 μL of the first antibody anti-phospho PTK2 [pY397] rabbit monoclonal (Invitrogen/Biosource, No.: 44-625G), which is diluted 1:200 in blocking buffer. For control purposes, alternatively a PTK2 [total] antibody (clone 4.47 mouse monoclonal, Upstate, No.: 05-537), diluted 1:400 in blocking buffer is used. This incubation is carried out at 4° C. overnight. Then the cell lawn is washed five times with 100 μL of 0.1% Tween in D-PBS for 5 min in each case and 50 μL/well of second antibody are added. In order to detect bound phospho-PTK2 [pY397] antibody a goat-anti-rabbit antibody is used which is coupled with horseradish peroxidase (Dako, No.: P0448; 1:500 dilution in blocking buffer). In order to detect bound PTK2 [total]-antibodies a rabbit-anti-mouse antibody is used, which is also coupled with horseradish peroxidase (Dako, No.: PO161; 1:1000 dilution in blocking buffer). This incubation is carried out for 1 h at RT with gentle shaking. The cell lawn is then again washed five times with 100 μL of 0.1% Tween in D-PBS for 5 min in each case. […] The EC50 values are determined from concentration-activity analyses by iterative calculation with the aid of a sigmoidal curve analysis algorithm (FIFTY, based on GraphPAD Prism Version 3.03) with a variable Hill coefficient.
In general, pEC50 refers to the negative decadic logarithm of the EC50, by convention in mol/L. For `COc1cc(C(N)=O)c(Br)cc1Nc1ncc(C(F)(F)F)c(NCc2ccc(C)cc2N(C)S(C)(=O)=O)n1` [Example 34], the pEC50 is 9.51.
On the same count and under the same terms, as for `COc1cc(C(=O)NC2CCN(C3CCOCC3)CC2)ccc1Nc1ncc(C(F)(F)F)c(NCc2ccc(Cl)cc2N(C)S(C)(=O)=O)n1` [Example 94], the figure is 8.70; as for `COc1cc(C(=O)NC2CCN(C)CC2)c(C)cc1Nc1ncc(C(F)(F)F)c(NCc2ccc(C)cc2N(C)S(C)(=O)=O)n1` [Example 100], 8.70; as for `COc1cc(C(=O)NC2CCC(NS(C)(=O)=O)CC2)ccc1Nc1ncc(C(F)(F)F)c(NCc2ccc(C)cc2N(C)S(C)(=O)=O)n1` (centres unmarked) [Example 27], 9.57.
Same read-out and setting: the result for `CCOCCNC(=O)c1ccc(Nc2ncc(C(F)(F)F)c(NCc3ccc(C)cc3N(C)S(C)(=O)=O)n2)c(OC)c1` [Example 21] reads 9.66.
Still for that read-out and setting: as for `COc1cc(C(=O)NC2CCN(CC3CC3)CC2)ccc1Nc1ncc(C(F)(F)F)c(NCc2ccc(C)cc2N(C)S(C)(=O)=O)n1` [Example 30], the figure is 9.54.
In the case of `COc1cc(C(=O)NC2CCNCC2)ccc1Nc1ncc(C(F)(F)F)c(NCc2ccc(C)cc2N(C)S(C)(=O)=O)n1` [Example 83], the pEC50 is 9.00.
The same measure, in the same setting: the result for `CNC(=O)c1ccc(Nc2ncc(C(F)(F)F)c(NCc3ccc(OC)cc3N(C)S(C)(=O)=O)n2)c(OC)c1` [Example 81] reads 9.00; that for `CNC(=O)c1ccc(Nc2ncc(C(F)(F)F)c(NCc3ccc(C)cc3N(C)S(C)(=O)=O)n2)c(OC)c1` [Example 69], 9.13; that for `COc1cc(C(=O)N[C@@H]2CCCN(C)C2)ccc1Nc1ncc(C(F)(F)F)c(NCc2ccc(C)cc2N(C)S(C)(=O)=O)n1` [Example 102], 8.70.
The same measure, in the same setting: the result for `COc1cc(C(=O)N[C@@H]2CCCN(C3CCC3)C2)ccc1Nc1ncc(C(F)(F)F)c(NCc2ccc(C)cc2N(C)S(C)(=O)=O)n1` [Example 86] reads 9.00; that for `COc1cc(C(=O)N[C@H]2CCN(C)C[C@H]2F)c(F)cc1Nc1ncc(C(F)(F)F)c(NCc2ccc(C)cc2N(C)S(C)(=O)=O)n1` [Example 22], 9.66; that for `CC(=O)Nc1ccc(Nc2ncc(C(F)(F)F)c(NCc3ccc(C)cc3N(C)S(C)(=O)=O)n2)cc1C` [Example 117], 8.52.
